Laboratory results: patent publication US20190105367A1, “ANTIMICROBIAL 4-OXOQUINOLIZINES” (Emergent Product Development Gaithersburg Inc., priority 2011, published 2019)
Converted amounts (≈) assume the structure as drawn. Where two headings read alike, the source gives them in different places.

Tests used:
[1] = tested on: E. cloacae 13047; experiment: MIC, standard panel of Gram-positive and Gram-negative strains (Example 2); type: cell-based, Enterobacter cloacae; conditions: Enterobacter cloacae, 13047; read-out: MIC E. cloacae 13047
[2] = tested on: S. aureus 25923; experiment: as above; type: cell-based; conditions: Staphylococcus aureus
[3] = Cytotoxicity (Example 7); type: cell-based; conditions: human, HEPG2 V1 cells
Procedure: The 4-oxoquinolizine compounds of the invention preferably have a low cytotoxicity against human cells. […].
Cytotoxicity was determined for the instant 4-oxoquinolizine compounds which show low cytotoxicity. (see Table 17 following). […]

[4] = tested on: S. epidermis 12228; experiment: MIC, standard panel of Gram-positive and Gram-negative strains (Example 2); type: cell-based, Staphylococcus epidermis; conditions: Staphylococcus
[5] = tested on: E. faecalis 29212; experiment: as above; type: cell-based, Enterococcus faecalis
[6] = tested on: A. baumannii A401; experiment: Preliminary MBC without and with sub-inhibitory polymyxin B (Example 4); type: cell-based, Acinetobacter baumannii; conditions: Acinetobacter baumannii
[7] = tested on: A. baumannii A472; experiment: MIC without and with sub-inhibitory polymyxin B (Example 4); type: cell-based, Acinetobacter baumannii; conditions: for MIC without PB/MIC + PB: A. baumannii A472, ratio; for MIC: Acinetobacter baumannii
[8] = tested on: S. aureus SMITH; experiment: MIC, panel of quinolone-resistant strains (Example 2); type: cell-based; conditions: Staphylococcus aureus, read-out: MIC S. aureus SMITH
[9] = tested on: S. aureus 25923 HS; experiment: MIC, standard panel of Gram-positive and Gram-negative strains (Example 2); type: cell-based; conditions: Staphylococcus aureus, read-out: MIC S. aureus 25923 HS
[10] = tested on: A. baumannii A387; experiment: Preliminary MBC without and with sub-inhibitory polymyxin B (Example 4); type: cell-based, Acinetobacter baumannii; conditions: Acinetobacter baumannii
[11] = tested on: A. baumanii 19606; experiment: MIC, standard panel of Gram-positive and Gram-negative strains (Example 2); type: cell-based; conditions: Acinetobacter baumannii
[12] = tested on: A. baumannii A401; experiment: MIC without and with sub-inhibitory polymyxin B (Example 4); type: cell-based, Acinetobacter baumannii; conditions: for MIC without PB/MIC + PB: A baumannii A 401, ratio, PB 0.06 μg/ml; for MIC: Acinetobacter baumannii
[13] = A401, A baumannii A 401, +0.06 μg/ml PB, 2nd experiment, read-out: MBC
[14] = A401, read-out: MBC +0.06 μg/ml PB, A baumannii A 401, +0.06 μg/ml polymyxin B, 1st experiment
[15] = A472, read-out: MIC +[…] PB, A. baumannii A472, +[…] polymyxin B, 1st experiment
[16] = A387, read-out: MBC +0.06 μg/ml PB, A. baumannii A387, +0.06 μg/ml polymyxin B, 1st experiment
[17] = A401, A baumannii A 401, +0.06 μg/ml PB, 2nd experiment, read-out: MIC
[18] = A401, read-out: MIC +0.06 μg/ml PB, A baumannii A 401, +0.06 μg/ml polymyxin B, 1st experiment

Row | Structure (SMILES) | MIC [1] [µg/mL] | MIC [2] [µg/mL] | IC50 [3] [µM] | MIC [4] [µg/mL] | MIC ([5]; Enterococcus faecalis, 29212; read-out: MIC E. faecalis 29212) [µg/mL] | MBC [6, 13] [µg/mL] | MBC [6, 14] [µg/mL] | MIC without PB/MIC + PB ([7]; 1st experiment) | MIC ([7]; A472, A. baumannii A472, +[…] PB, 2nd experiment, read-out: MIC) [µg/mL] | MIC [7, 15] [µg/mL] | MIC ([8]; CIP R) [µg/mL] | MIC [9] [µg/mL] | MBC ([10]; A387, A. baumannii A387, +0.06 μg/ml PB, 2nd experiment, read-out: MBC) [µg/mL] | MBC [10, 16] [µg/mL] | MIC [11] [µg/mL] | MIC without PB/MIC + PB ([12]; 1st experiment) | MIC [12, 17] [µg/mL] | MIC [12, 18] [µg/mL] | MIC ([5]; Enterococcus faecalis, 29212, read-out: MIC E. faecalis 29212) [µg/mL] | MIC [8] [µg/mL]
1 | Cc1c(-c2ccc(CN)c(F)c2)ccn2c(=O)c(C(=O)O)cc(C3CC3)c12 [Compound 4, 8-(3-fluoro-4-aminomethyl-phenyl)-1-cyclopropyl-9-methyl-4-oxo-quinolizine-3-carboxylic acid] | 0.06 (≈ 0.164 µM) | 0.06 (≈ 0.164 µM) | 60 | 0.06 (≈ 0.164 µM) | 0.125 (≈ 0.341 µM) | 0.5 (≈ 1.36 µM) | 2 | 4 | 0.125 (≈ 0.341 µM) | 1 (≈ 2.73 µM) | 0.125 (≈ 0.341 µM) | 0.125 (≈ 0.341 µM) | 0.5 (≈ 1.36 µM) | 1 | 0.25 (≈ 0.682 µM) | 4 | 0.5 (≈ 1.36 µM) | 4 | – | –
2 | Cc1c(-c2ccc(CN)cc2)ccn2c(=O)c(C(=O)O)cc(C3CC3)c12 [Compound 5, 8-(4-aminomethyl-phenyl)-1-cyclopropyl-9-methyl-4-oxo-quinolizine-3-carboxylic acid] | 0.06 (≈ 0.172 µM) | 0.03 (≈ 0.0861 µM) | – | 0.06 (≈ 0.172 µM) | – | 4 (≈ 11.5 µM) | 2 | 8 | – | 1 (≈ 2.87 µM) | – | 0.125 (≈ 0.359 µM) | – | 0.25 | 0.25 (≈ 0.718 µM) | 8 | 4 (≈ 11.5 µM) | 2 | 0.125 (≈ 0.359 µM) | 0.125 (≈ 0.359 µM)
